Consider one compound from PMC8468270, “In Vitro Heme Coordination of a Dye-Decolorizing Peroxidase—The Interplay of Key Amino Acids, pH, Buffer and Glycerol” (International Journal of Molecular Sciences, 2021).

The target in this assay is T1, KpDyP (WT KpDyP) (Klebsiella pneumoniae, UniProt A0A0W8ATM9).
T1 construct: gene yfeX; homodimer; ferric heme; distal D143, R232, L246, F248, proximal H215
T1 sequence (A0A0W8ATM9 1-299): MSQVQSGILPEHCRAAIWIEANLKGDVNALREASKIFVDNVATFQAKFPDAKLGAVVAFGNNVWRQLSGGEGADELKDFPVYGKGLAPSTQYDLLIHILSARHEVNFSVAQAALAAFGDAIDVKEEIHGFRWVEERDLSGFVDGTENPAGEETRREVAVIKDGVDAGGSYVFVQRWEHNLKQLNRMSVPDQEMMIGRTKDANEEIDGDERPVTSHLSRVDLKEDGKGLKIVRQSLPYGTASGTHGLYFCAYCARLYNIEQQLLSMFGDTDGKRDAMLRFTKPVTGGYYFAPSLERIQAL
Briefly: X-band CW EPR of frozen solution. Type of assay: binding. Particulars: glycine-KOH buffer 50 mM, pH 10.0, 10 K, no glycerol; heme iron distal ligand; seen only at low temperature, not at room temperature.

Take `NCC(=O)O` [glycine]: the “X-band CW EPR of frozen solution” value was “glycine binding is also observed for WT and R232A KpDyP at low temperature”.
